According to ChEMBL document CHEMBL5053514, “Synthesis and Anti-Influenza Virus Effects of Novel Substituted Polycyclic Pyridone Derivatives Modified from Baloxavir” (J Med Chem, 2021):

Experiments:
[1] = Antiviral activity against Influenza A virus (A/WUHAN/359/1995(H3N2)) infected in dog MDCK cells assessed as inhibition of virus-induced cytopathogenicity incubated for 48 hrs; assay type: functional, cell-based
[2] = Cytotoxicity against MDCK cells assessed as reduction in cell viability measured after 48 hrs by CCK8 assay; assay type: cell-based, Canis lupus familiaris; details: dog, read-out: TC50
Influenza A virus [3] = assay: Antiviral activity against Influenza A virus (A/Fort Monmouth/1/1947(H1N1)) infected in dog MDCK cells assessed as inhibition of virus-induced cytopathogenicity incubated for 48 hrs; assay type: functional, organism-based
[4] = Selectivity index, ratio of TC50 for MDCK cells to IC50 for antiviral activity against Influenza A virus (A/WUHAN/359/1995(H3N2)) infected in MDCK cells; assay type: toxicity, cell-based; details: dog, read-out: Selectivity Index
[5] = Selectivity index, ratio of TC50 for MDCK cells to IC50 for antiviral activity against Influenza A virus (A/Fort Monmouth/1/1947(H1N1)) infected in MDCK cells; assay type: toxicity, cell-based; details: dog, read-out: Selectivity Index
MDCK = assay: Cytotoxicity against MDCK cells assessed as reduction in cell viability at 20 uM measured after 48 hrs by CCK8 assay; assay type: cell-based, Canis lupus familiaris; details: dog
HEK293T [6] = assay: Inhibition of Influenza A virus RdRP transfected in HEK293T cells co-transfected with NP/PA/PB1/PB2/pRL-SV40 incubated for 24 hrs by DualGlo-luciferase assay; assay type: cell-based
Influenza A virus [7] = assay: Antiviral activity against Influenza A virus (A/Fort Monmouth/1/1947(H1N1)) infected in dog MDCK cells assessed as inhibition of M2 protein measured after 18 hrs by immunofluorescence microscopic analysis; assay type: functional, organism-based
Influenza A virus [8] = assay: Antiviral activity against Influenza A virus (A/Fort Monmouth/1/1947(H1N1)) infected in dog MDCK cells assessed as inhibition of M2 RNA level at 3 nM measured after 2 hrs by qRT-PCR relative to control; assay type: functional
Influenza A virus [9] = assay: Antiviral activity against Influenza A virus (A/Fort Monmouth/1/1947(H1N1)) infected in dog MDCK cells assessed as downregulation of M2 mRNA level measured after 2 hrs by qRT-PCR; assay type: functional, organism-based
HEK293T [10] = assay: Inhibition of Influenza A virus RdRP transfected in HEK293T cells co-transfected with NP/PA/PB1/PB2/pRL-SV40 at 1 nM incubated for 24 hrs by minireplicon based dual luciferase assay relative to control; assay type: cell-based
[11] = Oral bioavailability Sprague-Dawley rat at 5 mg/kg measured after 24 hrs by LC-MS/MS analysis; assay type: ADME, organism-based; details: in vivo
[12] = Half life in human liver microsomes in presence of NADPH generating system by LC-MS/MS analysis; assay type: ADME, Microsome
[13] = AUC (0 to t) in Sprague-Dawley rat at 5 mg/kg, po measured after 24 hrs by LC-MS/MS analysis; assay type: ADME, organism-based; parameters: time 24 hrs, dose 5 mg/kg, route po; details: in vivo
[14] = Tmax in Sprague-Dawley rat at 5 mg/kg, po measured after 24 hrs by LC-MS/MS analysis; assay type: ADME, organism-based; details: in vivo
[15] = Clearance in mouse liver microsomes in presence of NADPH generating system by LC-MS/MS analysis; assay type: ADME, Microsome
[16] = Half life in Sprague-Dawley rat at 5 mg/kg, po measured after 24 hrs by LC-MS/MS analysis; assay type: ADME, organism-based; details: in vivo
[17] = Cmax in Sprague-Dawley rat at 5 mg/kg, po measured after 24 hrs by LC-MS/MS analysis; assay type: ADME, organism-based; parameters: dose 5 mg/kg, time 24 hrs, route po; details: in vivo
[18] = Half life in rat liver microsomes in presence of NADPH generating system by LC-MS/MS analysis; assay type: ADME, Microsome
[19] = AUC (0 to infinity) in Sprague-Dawley rat at 5 mg/kg, po measured after 24 hrs by LC-MS/MS analysis; assay type: ADME, organism-based; parameters: time 24 hrs, dose 5 mg/kg, route po; details: in vivo
[20] = Clearance in human liver microsomes in presence of NADPH generating system by LC-MS/MS analysis; assay type: ADME, Microsome
[21] = Half life in mouse liver microsomes in presence of NADPH generating system by LC-MS/MS analysis; assay type: ADME, Microsome
[22] = Clearance in rat liver microsomes in presence of NADPH generating system by LC-MS/MS analysis; assay type: ADME, Microsome

| Structure (SMILES) | IC50 [1] [nM] | CC50 at 48 h [2] [nM] | IC50 (Influenza A virus [3]) [nM] | selectivity ratio [4] | selectivity ratio [5] | Activity (MDCK) | Activity (Influenza A virus [9]) | also measured |
| --- | --- | --- | --- | --- | --- | --- | --- | --- |
| O=C1c2c(O)c(=O)ccn2N(C2c3ccccc3C=Cc3cc(Cl)ccc32)[C@@H]2COCCN12 (mixture of isomers) | 4.69 | 19200 | 7.17 | 4090 | 2670 | – | – | – |
| COc1ccc2c(c1)C(N1[C@@H]3COCCN3C(=O)c3c(O)c(=O)ccn31)c1ccccc1C=C2 (mixture of isomers) | 128 | > 200000 | 281 | > 1560 | > 711 | Non-Toxic | – | – |
| O=C1c2c(O)c(=O)ccn2N(C2c3ccccc3C=Cc3c(Cl)cccc32)[C@@H]2COCCN12 (mixture of isomers) | 0.53 | 8530 | 0.59 | 16100 | 14500 | – | Dose-dependent effect | inhibition (HEK293T [6]): Dose-dependent effect; Activity (Influenza A virus [7]): Dose-dependent effect; inhibition at 0.003 µM (Influenza A virus [8]): 76.3%; inhibition (HEK293T [10]): 53.5% |
| O=C1c2c(O)c(=O)ccn2N(C2c3ccccc3C=Cc3cc(Br)ccc32)[C@@H]2COCCN12 (mixture of isomers) | 15.1 | 21700 | 10.6 | 1440 | 2050 | – | – | – |
| O=C1c2c(O)c(=O)ccn2N(C2c3ccccc3C=Cc3ccc(Br)cc32)[C@@H]2COCCN12 (mixture of isomers) | 26.7 | > 200000 | 19.4 | > 7490 | > 10300 | Non-Toxic | – | – |
| O=C1c2c(O)c(=O)ccn2N(C2c3ccccc3C=Cc3ccc(F)cc32)[C@@H]2COCCN12 (mixture of isomers) | 1.77 | > 200000 | 2.91 | > 113000 | > 68700 | Non-Toxic | Dose-dependent effect | – |
| Cc1ccc2c(c1)C(N1[C@@H]3COCCN3C(=O)c3c(O)c(=O)ccn31)c1ccccc1C=C2 (mixture of isomers) | 111 | 52400 | 39.3 | 472 | 1330 | Non-Toxic | – | – |
| O=C1c2c(O)c(=O)ccn2N(C2c3ccccc3C=Cc3c(F)cccc32)[C@@H]2COCCN12 (mixture of isomers) | 0.57 | 19400 | 0.39 | 34000 | 49600 | – | Dose-dependent effect | inhibition (HEK293T [6]): Dose-dependent effect; Activity (Influenza A virus [7]): Dose-dependent effect; inhibition at 0.003 µM (Influenza A virus [8]): 86%; inhibition (HEK293T [10]): 48.5% |
| O=C1c2c(O)c(=O)ccn2N(C2c3ccccc3C=Cc3ccc(Cl)cc32)[C@@H]2COCCN12 (mixture of isomers) | 15.2 | 20100 | 14.3 | 1330 | 1440 | – | – | – |
| O=C1c2c(O)c(=O)ccn2N(C2c3ccccc3C=Cc3ccccc32)[C@@H]2COCCN12 | 0.38 | 189000 | 0.42 | 497000 | 450000 | Non-Toxic | Dose-dependent effect | bioavailability [11]: 22.9%; half-life [12]: 221 h; AUC(0-t) at 24 h [13]: 295 ng·h/mL; inhibition (HEK293T [6]): Dose-dependent effect; Tmax [14]: 0.83 h; CLH [15]: 73.9 microL/ml/min; half-life [16]: 1.7 h; Activity (Influenza A virus [7]): Dose-dependent effect; inhibition at 0.003 µM (Influenza A virus [8]): 88.5%; Cmax [17]: 88.1 ng/mL; half-life [18]: 73.8 h; AUC(0-inf) [19]: 311 ng·h/mL; CLH [20]: 79.04 µmol/min/g; half-life [21]: 31.4 h; CLH [22]: 14.49 microL/ml/min; inhibition (HEK293T [10]): 50% |
| O=C1c2c(O)c(=O)ccn2N(C2c3ccccc3C=Cc3cc(F)ccc32)[C@@H]2COCCN12 (mixture of isomers) | 0.82 | 59500 | 0.51 | 72600 | 117000 | Non-Toxic | Dose-dependent effect | – |
